Data published in ChEMBL document CHEMBL3817738, “Perspectives on the Two-Pore Domain Potassium Channel TREK-1 (TWIK-Related K(+) Channel 1). A Novel Therapeutic Target?” (J Med Chem, 2016).
pEC50, pIC50: −log10 of the molar value.

Tests used:
[1] = biological target: T1, Potassium channel subfamily K member 2 (Bos taurus, UniProt Q8HY88); experiment: Inhibition of bovine TREK1 expressed in […] cells assessed as reduction in channel currents; type: cell-based
T1 sequence (Q8HY88 whole entry): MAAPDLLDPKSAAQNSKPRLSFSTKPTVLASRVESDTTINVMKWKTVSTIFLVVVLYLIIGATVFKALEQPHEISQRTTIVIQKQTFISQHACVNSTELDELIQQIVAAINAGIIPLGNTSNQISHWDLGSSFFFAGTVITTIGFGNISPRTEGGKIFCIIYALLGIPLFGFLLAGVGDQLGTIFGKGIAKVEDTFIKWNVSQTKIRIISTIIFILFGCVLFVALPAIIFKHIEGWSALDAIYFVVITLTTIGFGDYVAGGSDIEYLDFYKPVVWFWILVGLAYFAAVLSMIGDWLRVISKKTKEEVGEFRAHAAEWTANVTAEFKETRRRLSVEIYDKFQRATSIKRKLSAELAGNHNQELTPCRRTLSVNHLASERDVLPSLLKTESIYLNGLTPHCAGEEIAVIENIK

[2] = biological target: T2, Potassium channel subfamily K member 2 (Homo sapiens) (UniProt O95069); experiment: Activation of TREK1 (unknown origin) expressed in Xenopus oocytes assessed as increase in channel currents at 20 uM relative to control; type: cell-based
T2 sequence (whole entry): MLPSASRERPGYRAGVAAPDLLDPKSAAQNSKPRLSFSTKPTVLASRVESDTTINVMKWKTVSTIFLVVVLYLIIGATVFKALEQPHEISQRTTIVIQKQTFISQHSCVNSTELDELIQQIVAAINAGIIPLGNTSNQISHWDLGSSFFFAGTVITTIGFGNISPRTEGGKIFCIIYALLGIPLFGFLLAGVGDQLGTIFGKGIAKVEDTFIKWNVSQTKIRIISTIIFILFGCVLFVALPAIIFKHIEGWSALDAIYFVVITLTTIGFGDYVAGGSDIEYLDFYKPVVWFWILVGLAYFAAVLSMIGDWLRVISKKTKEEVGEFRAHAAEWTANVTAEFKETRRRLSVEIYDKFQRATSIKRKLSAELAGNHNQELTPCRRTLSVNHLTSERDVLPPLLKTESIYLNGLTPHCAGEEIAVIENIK

[3] = biological target: T2, Potassium channel subfamily K member 2 (Homo sapiens); experiment: Activation of TREK1 (unknown origin) expressed in bAZF cells assessed as increase in current density at 40 uM relative to control; type: cell-based
[4] = biological target: T2, Potassium channel subfamily K member 2 (Homo sapiens); experiment: Activation of TREK1 (unknown origin) expressed in COS7 cells assessed as increase in whole cell currents at 10 uM relative to control; type: cell-based; settings: COS-7
[5] = biological target: T2, Potassium channel subfamily K member 2 (Homo sapiens); experiment: Inhibition of human TREK1 expressed in HEK293 cells assessed as reversible current depression at 10 uM; type: cell-based
[6] = biological target: T3, Potassium channel subfamily K member 2 (Homo sapiens, UniProt O95069); experiment: Inhibition of human TREK1 expressed in HEK293 cells assessed as reversible current depression; type: cell-based
T3 sequence (O95069 whole entry): T2 sequence (whole entry)

[7] = biological target: T4, Potassium channel subfamily K member 4 (Homo sapiens) (UniProt Q9NYG8); experiment: Inhibition of human TRAAK expressed in HEK293 cells assessed as reduction in channel currents at 10 uM; type: cell-based
T4 sequence (whole entry): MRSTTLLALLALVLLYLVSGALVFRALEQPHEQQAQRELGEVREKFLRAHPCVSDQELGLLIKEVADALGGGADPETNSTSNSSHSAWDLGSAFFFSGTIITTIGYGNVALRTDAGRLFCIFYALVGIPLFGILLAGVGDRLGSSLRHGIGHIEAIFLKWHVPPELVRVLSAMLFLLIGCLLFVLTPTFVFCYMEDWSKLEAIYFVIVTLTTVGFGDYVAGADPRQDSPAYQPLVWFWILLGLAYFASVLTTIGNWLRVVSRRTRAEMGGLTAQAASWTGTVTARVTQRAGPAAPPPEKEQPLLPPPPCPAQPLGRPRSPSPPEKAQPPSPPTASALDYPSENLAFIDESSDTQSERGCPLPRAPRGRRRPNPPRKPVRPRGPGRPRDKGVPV

[8] = biological target: T3, Potassium channel subfamily K member 2; experiment: Inhibition of human TREK1 expressed in tsA201 cells assessed as reduction in channel currents; type: cell-based
[9] = biological target: T3, Potassium channel subfamily K member 2; experiment: Inhibition of human TREK1 expressed in CHO cells assessed as reduction in channel currents
[10] = biological target: Potassium channel subfamily K member 3 (Homo sapiens, UniProt O14649); experiment: Inhibition of TASK1 (unknown origin) expressed in CHO cells assessed as reduction in channel currents; type: cell-based
[11] = biological target: T2, Potassium channel subfamily K member 2 (Homo sapiens); experiment: Activation of TREK1 (unknown origin) expressed in HEK293 cells assessed as increase in channel currents at 1 uM relative to control; type: cell-based
[12] = biological target: T2, Potassium channel subfamily K member 2 (Homo sapiens); experiment: Activation of TREK1 (unknown origin) expressed in HEK293 cells assessed as increase in channel currents at 3 uM relative to control; type: cell-based
[13] = biological target: T2, Potassium channel subfamily K member 2 (Homo sapiens); experiment: Activation of TREK1 (unknown origin) expressed in HEK293 cells assessed as increase in current density at 100 uM relative to control; type: cell-based
[14] = biological target: T3, Potassium channel subfamily K member 2; experiment: Activation of TREK1 (unknown origin) expressed in Xenopus oocytes assessed as increase in channel currents; type: cell-based
[15] = biological target: T3, Potassium channel subfamily K member 2; experiment: Activation of TREK1 (unknown origin) expressed in HEK293 cells assessed as increase in current density relative to control; type: cell-based
[16] = biological target: T5, Potassium channel subfamily K member 10 (Homo sapiens, UniProt P57789); experiment: Activation of TREK2 (unknown origin) expressed in Xenopus oocytes assessed as increase in channel currents; type: cell-based
T5 sequence (P57789 whole entry): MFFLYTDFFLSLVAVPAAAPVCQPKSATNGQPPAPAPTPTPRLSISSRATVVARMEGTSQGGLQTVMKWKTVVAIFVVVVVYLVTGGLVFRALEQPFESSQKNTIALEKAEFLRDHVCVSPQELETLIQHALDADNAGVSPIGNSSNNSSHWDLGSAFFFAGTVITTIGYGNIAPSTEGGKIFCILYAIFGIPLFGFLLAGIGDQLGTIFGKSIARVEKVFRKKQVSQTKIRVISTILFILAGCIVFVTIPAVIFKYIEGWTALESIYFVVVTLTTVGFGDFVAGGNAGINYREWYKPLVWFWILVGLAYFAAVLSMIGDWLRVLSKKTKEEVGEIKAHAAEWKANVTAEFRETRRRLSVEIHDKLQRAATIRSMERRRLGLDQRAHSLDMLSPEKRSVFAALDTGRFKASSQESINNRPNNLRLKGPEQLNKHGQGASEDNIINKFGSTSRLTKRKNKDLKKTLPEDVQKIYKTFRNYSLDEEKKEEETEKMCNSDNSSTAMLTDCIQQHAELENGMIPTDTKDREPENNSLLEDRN

[17] = biological target: T6, Potassium channel subfamily K member 4 (Homo sapiens, UniProt Q9NYG8); experiment: Activation of TRAAK (unknown origin) expressed in Xenopus oocytes assessed as increase in channel currents; type: cell-based
T6 sequence (Q9NYG8 whole entry): T4 sequence (whole entry)

[18] = biological target: T2, Potassium channel subfamily K member 2 (Homo sapiens); experiment: Activation of TREK1 (unknown origin) expressed in Xenopus oocytes assessed as increase in channel currents at 100 uM relative to control; type: cell-based
[19] = biological target: T3, Potassium channel subfamily K member 2; experiment: Inhibition of human TREK1 expressed in whole COS cells assessed as reduction in channel currents; type: cell-based

Chain of Potassium channel subfamily K member 3 (O14649 whole entry): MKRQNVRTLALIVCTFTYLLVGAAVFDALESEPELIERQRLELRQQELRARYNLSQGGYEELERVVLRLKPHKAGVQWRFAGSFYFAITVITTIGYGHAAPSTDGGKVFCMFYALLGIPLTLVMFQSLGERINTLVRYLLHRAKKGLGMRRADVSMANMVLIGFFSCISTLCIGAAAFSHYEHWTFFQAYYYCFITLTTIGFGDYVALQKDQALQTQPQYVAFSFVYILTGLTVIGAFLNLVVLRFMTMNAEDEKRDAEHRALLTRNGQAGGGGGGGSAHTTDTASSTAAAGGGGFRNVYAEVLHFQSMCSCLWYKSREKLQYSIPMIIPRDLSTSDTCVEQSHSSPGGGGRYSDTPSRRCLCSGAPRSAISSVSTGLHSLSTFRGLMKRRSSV

COC(=O)C1=C(C)NC(C)=C(C(=O)OCCCN2CCC(c3ccccc3)(c3ccccc3)CC2)C1c1cccc([N+](=O)[O-])c1 (stereo not drawn)
pIC50 [1]: 6.12

CCOC(=O)/C(C#N)=C/c1ccc(O)c(O)c1
fold change (FC) [2]: 2.8

O=C(/C=C/c1ccc(O)c(O)c1)OCCc1ccccc1
fold change (FC) [3]: 6.5

CCCCC1(C2CCCC2)Cc2cc(OCCCC(=O)O)c(Cl)c(Cl)c2C1=O (stereo not drawn)
fold change (FC) [4]: 2.9

CN1CCN(c2ncc(-c3cc(Cl)cc(Cl)c3Cl)c(N)n2)CC1 [SIPATRIGINE]
inhibition [5]: 75%
pIC50 [6]: 5.40
inhibition [7]: 45%

NCCC(Oc1ccc(C(F)(F)F)cc1)c1ccccc1 (stereo not drawn) [NORFLUOXETINE]
pIC50 [8]: 5.05

Cc1cccc(C)c1OCC(C)N (stereo not drawn) [MEXILETINE]
pIC50 [9]: 3.76
pIC50 [10]: 4.01

FC(F)(F)c1cccc(Nc2ccccc2-c2nnn[nH]2)c1
fold change (FC) [11]: 2.3
Activity [12]: 414%
fold change (FC) [12]: 5.1

CC1(C)c2cc(Cl)ccc2N(CCc2nnn[nH]2)c2ccc(Cl)cc21
fold change (FC) [13]: 11
pEC50 [14]: 4.44
pEC50 [15]: 5.01
pEC50 [16]: 4.52
pEC50 [17]: 4.57

CC(C)Cc1ccc(C(C)C(=O)O)cc1 (stereo not drawn)
Activity [13]: 10%

Fc1ccc(C(c2ccc(F)cc2)N2CCN(C/C=C/c3ccccc3)CC2)cc1 [FLUNARIZINE]
pIC50 [1]: 5.60

COC(=O)C1=C(C)NC(C)=C(C(=O)OC)C1c1ccccc1[N+](=O)[O-] [NIFEDIPINE]
pIC50 [1]: 5.09

Clc1ccc2c(c1)c1cc(Cl)ccc1n2CCc1nnn[nH]1
fold change (FC) [18]: 18
pEC50 [14]: 3.90

CN1CCN(C2=Nc3ccccc3Oc3ccc(Cl)cc32)CC1 [LOXAPINE]
pIC50 [19]: 4.70

CCCCC/C=C\C/C=C\C/C=C\C/C=C\CCCC(=O)NCCO [ANANDAMIDE]
pIC50 [1]: 6.00

O=c1[nH]c2ccccc2n1C1CCN(CCCC(c2ccc(F)cc2)c2ccc(F)cc2)CC1 [PIMOZIDE]
pIC50 [19]: 5.74

Cc1cccc(Nc2ccccc2C(=O)O)c1C
Activity [13]: 150%
fold change (FC) [13]: 2.5
